Measured values as given in patent US5480880A, “Penem derivatives” (Farmitalia Carlo Erba S.r.l., priority 1991, dated 1996).

Tests used:
[1] = test system: Escherichia coli G (clinical isolate); assay: In vivo activity on mouse systemic infection, E. coli (ED50); settings: sc, 120 h, mouse systemic infection (female CD1), subcutaneous, treatment 30-90-360 min after infection, survival on day 5, read-out: ED50 (cumulative subcutaneous dose)
Method: (§1) Invivo activity of Compound of formula (I), R =
(§2) CH2 SO2 NHCN (Example 1), in comparison with FCE 22101*,
(§3) on mouse^a systemic infections.
(§4) ^a) Female mice CD1 (Charles River, Italy), weighing 22 ± 2 g were
(§5) used, experimentally infected by an introperitoneal route. Eight animals
(§6) were used at each of the concentrations of compound tested, which were
(§7) administered subcutaneously (0.1 ml/10 g weight). The mortality was
(§8) recorded daily and the number of animals surviving on day 5 was used to
(§9) calculate the cumulative effective dose (ED50).
(§10) ^b) Cumulative subcutaneous dose.
(§11) ^c) Infecting organisms were: S. aureus, Staphylococcus aureus Smith
(§12) ATCC 13709; E. Coli, Escherichia coli G (clinical isolate); S. faecalis,
(§13) ^d) Minutes after infection.

[2] = test system: Staphylococcus aureus Smith ATCC 13709; assay: In vivo activity on mouse systemic infection, S. aureus (ED50); settings: ATCC13709, sc, 120 h, mouse systemic infection (female CD1), subcutaneous, treatment 120 min after infection, survival on day 5, read-out: ED50 (cumulative subcutaneous dose)
Method: as §1, §2, §3, §4, §5, §6, §7, §8, §9, §10, §11, §12, §13

[3] = test system: Streptococcus faecalis 3817 (clinical isolate); assay: In vivo activity on mouse systemic infection, S. faecalis (ED50); settings: Enterococcus faecalis, sc, 120 h, mouse systemic infection (female CD1), subcutaneous, treatment 60-180 min after infection, survival on day 5, read-out: ED50 (cumulative subcutaneous dose)
Method: as §1, §2, §3, §4, §5, §6, §7, §8, §9, §10, §11, §12
Streptococcus faecalis 3817 (clinical isolate).
as §13

[4] = Acute toxicity in mice; settings: in vivo; mouse, I.D. (so in the source)

Work on `CC(O)C1C(=O)N2C(C(=O)O)=C(COC(N)=O)SC12` (stereo not shown) [FCE 22101, reference compound] yielded an ED50 [1] of 10 mg/kg, an ED50 [2] of 0.7 mg/kg and an ED50 [3] of 80 mg/kg.
`CC(O)C1C(=O)N2C(C(=O)O)=C(c3ccc(C[n+]4ccc(CS(=O)(=O)[N-]C#N)cc4)cc3)SC12` [Example 1, (5R,6S)-6-/1 (R)-Hydroxyethyl/-2-/4-/4-(N-cyanosulfamoylato) methyl-1-pyridinio/methylphenyl/penem-3-carboxylic acid] gave an LD50 [4] of over 3000 mg/kg, an ED50 [1] of 0.65 mg/kg and an ED50 [2] of 0.16 mg/kg. It also gave an ED50 [3] of 8.5 mg/kg.
